Test system: dyskinesias induced by levodopa
Assay: levodopa-induced abnormal involuntary movements (AIMs) in rats with unilateral 6-OHDA lesions (animal model of Parkinson's disease)
Type: in vivo, Sprague-Dawley rats
Description: More precisely, the effects of administering several gases as treatment of dyskinesias were evaluated in rats having lesions produced by unilateral injection of 6-OHDA (6-hydroxydopamine, a powerful neurotoxic) in an ascending nigrostriatal pathway (animal model of Parkinson's disease). In this model, long-term treatment of rats with levodopa induces abnormal involuntary movements (AIMs) that are similar to those in dyskinesias induced by levodopa in humans. The rats with lesions induced by 6-OHDA serving as the model of Parkinson's disease are prepared as follows. 16 Sprague-Dawley rats weighing between 250 and 300 g are kept in a room with controlled temperature (about 22° C.) with day/night cycles of 12 h, with free access to food and water. The animals receive, 30 min before the intervention, an intraperitoneal injection of pargyline (5 mg/kg; inhibitor of monoamine oxidase-B) and of desipramine (25 mg/kg; norepinephrine reuptake inhibitor). The animals are put in an anesthesia chamber with continuous flow of oxygen at 1.5 l/minute and 3% isoflurane. After anesthesia, the animals are placed in a stereotaxic frame. […] The injection site is localized according to the coordinates relative to bregma: −2.8 mm rostral, 2 mm lateral and 9 mm under the cranium (Paxinos and Watson, 1986). The rats are left to recover for 3 weeks after the lesions. The animals receive 0.05 mg/kg s.c. of apomorphine. […] The animals that remain receive an administration of 6 mg/kg of levodopa and 15 mg/kg of benzerazide (i.p.), twice a day, for 21 consecutive days. During these 21 days, the abnormal involuntary movements (AIMs) are assessed on days 1, 7, 14 and 21. The therapeutic treatments begin on day 22. They consist of administering the following to the rats by inhalation: • xenon/O2 gas mixtures (50%/50% by volume) as test gas according to the invention and; • N2/O2 gas mixtures (50%/50% by volume) as control. The gas mixtures are premixtures supplied by Air Liquide™. The gas concentrations are monitored continuously. Exposure to the gases is effected in a Plexiglas chamber with a length of 42 cm, and width and height of 26 cm. Each time, 4 or 5 rats are put in the chamber and inhale the test gas for 1 h. The chamber is supplied with fresh gas at a flow rate of 4 l/min. The abnormal involuntary movements (AIMs) are assessed for 180 min after injection of levodopa. More precisely, the animals are put in boxes (22 cm×34 cm×20 cm) and are left there for 15 minutes for them to become accustomed to their environment. Levodopa methyl ester (6 mg/kg, i.p.) is then administered at time intervals of 1 minute between rats. Each rat is observed for 1 minute at intervals of 30 minutes after injection and for a period of 180 min. Four subtypes of AIMs are assessed, namely: • Locomotor (Lo): increased movements contralateral to the lesion, • Hind limbs (Li): uncontrolled random movements of the hind limbs contralateral to the lesion, • Orolingual (Ol): excessive mastication and jaw movements with tongue protrusion, • Axial (Ax): dystonic postures or choreiform twisting of the neck and of the upper body contralaterally. The severity of the MIAs is scored from 1 to 4 according to the duration of the MIAs over an observation period of one minute: • 0.1=presence of MIAs for less than 30 s • 0.2=presence of MIAs for more than 30 s • 0.3=presence of MIAs during the minute with interruption by external stimuli • 0.4=presence of MIAs during the minute without interruption by external stimuli

[1] = parkinsonian rat, xenon/O2 50%/50% by volume inhaled 1 h, vs control N2/O2 50%/50%, amplitude and duration
[2] = parkinsonian rat, xenon/O2 50%/50% inhaled, vs control N2/O2

Question: Which “appearance of the 4 types of dyskinesias (Lo, Li, Ol, Ax)” value (animals breathing xenon/O2 (50%/50% by volume), amplitude and duration) does the source give for `[Xe]` [xenon] here?
Answer: Its value is “greatly reduced”.

Question: And the “axial dyskinesias (Ax), kinetics following administration of L-Dopa (FIG. 3A)” value [1]?
Answer: The value was “clear decrease”.

Question: And the “hind limb dyskinesias (Li), kinetics following administration of L-Dopa (FIG. 4A)” value [1]?
Answer: The value was “significant decrease”.

Question: What about the “locomotor dyskinesias (Lo), kinetics following administration of L-Dopa (FIG. 6A)” value [1] of the same compound?
Answer: Its value is “large decrease”.

Question: And the “orolingual dyskinesias (Ol), kinetics following administration of L-Dopa (FIG. 5A)” value [1]?
Answer: Its value is “clear decrease”.

Question: What about the “mean value of hind limb dyskinesias (Li) from 60 to 180 min (FIG. 4B)” value [2] of the same compound?
Answer: The value was “fewer hind limb dyskinesias”.

Question: And the “mean value of locomotor dyskinesias from 60 to 180 min (FIG. 6B)” value [2]?
Answer: The value was “fewer locomotor dyskinesias”.

Question: What about the “mean value of orolingual dyskinesias (Ol) from 60 to 180 min (FIG. 5B)” value [2] of the same compound?
Answer: Its value is “fewer orolingual dyskinesias”.

Question: And the “mean value of the axial dyskinesias from 60 to 180 min (FIG. 3B)” value [2]?
Answer: Its value is “fewer axial dyskinesias”.
